Measured values published in ChEMBL document CHEMBL1157118, “Cooperative binding of a quinoline derivative to an RNA stem loop containing a dangling end” (Bioorg Med Chem Lett, 2010).
Activity calls are given as the source filed them. The calls are words filed in the database; no cut-off is given here.

Experiments:
Type in all cases: nucleic-acid assay
[1] = target: Nucleic Acid; assay: Binding affinity to 3'-dangling end of RNA1 by fluorescence spectroscopy analysis in presence of Triton X-100
[2] = target: Nucleic Acid; assay: Binding affinity to 3'-dangling end of RNA1 by fluorescence spectroscopy analysis in absence of Triton X-100
[3] = target: Nucleic Acid; assay: Binding affinity to 3'-dangling end of RNA1 ligand binding site 1 by isothermal titration calorimetry
[4] = tested on: Nucleic Acid; assay: Binding affinity to 3'-dangling end of RNA1 at 7.5 to 50 uM by CD spectroscopy
[5] = tested on: Nucleic Acid; assay: Binding affinity to 3'-dangling end of RNA1 by UV reverse titration method
[6] = target: Nucleic Acid; assay: Binding affinity to 3'-dangling end of RNA1 ligand binding site 2 by isothermal titration calorimetry
[7] = target: Nucleic Acid; assay: Binding affinity to 3'-dangling end of RNA1 ligand binding site 3 by isothermal titration calorimetry
[8] = target: Nucleic Acid; assay: Binding affinity to 3'-dangling end of RNA1 ligand binding site 4 by isothermal titration calorimetry

Molecule `OC(CNc1ccnc2cc(Cl)ccc12)CNc1ccnc2cc(Cl)ccc12` has a Kd [1] of 12 µM, a Kd [2] of 8.2 µM and a Kd [3] of 10.8 µM. For the same molecule, the Activity [4] was “Active”, the Activity [5] was “Active” and the Kd [6] was 9.2 µM. For the same molecule, the Kd [7] was 8.1 µM and the Kd [8] was 12.5 µM.
